Broadly, the melting point is the temperature, or range, at which the solid turns liquid. Take `CSC1C(=O)Nc2c(C(=O)c3ccccc3F)cccc21` (stereo not drawn): the melting point fell in the range of 147 to 148 °C.
The figure for `O[Si](Cn1cncn1)(c1ccc(F)cc1)c1ccc(F)cc1` is 130 to 131 °C; for `CCOC(=O)c1[nH]c2ccc(F)cc2c1N` it is 77 to 78 °C; for `CCCc1nc2cnccc2s1` it is 44 to 47 °C.
The figure for `COCC1CNc2nc(N)[nH]c(=O)c2N1` (racemic) is over 250 °C; for `COC(=N)Nc1nc(Cl)cc(OC)n1` it is 118 to 120 °C.
On to `CC(=O)Nc1cc(C)c2c(c1C)CC(C)(C)O2`, for which the melting point fell in the range of 161 to 162 °C.
The result for `Cc1cc(OC2CN(C(=O)c3nnc(-c4ccccc4)o3)C2)ccc1CN1CCC(C)(CO)CC1` reads 167 °C.
For the compound `CCOc1nc(C(F)(F)F)cc(=O)n1-c1cc(OC(C)C)c(Br)cc1F`, the melting point was in the range of 106 to 108 °C.
The figure for `NC(=O)c1c[nH]c2c1ccc1c3ccccc3[nH]c12` is over 300 °C.
The figure for `CSCCC(NC(=O)OCc1ccccc1)C(N)=O` (racemic) is 120 to 122 °C.
With `CC(=O)Oc1c(Oc2ccccc2)c(Oc2ccccc2)c(OC(C)=O)c2ccccc12`, the melting point fell in the range of 173 to 174 °C.
The result for `CN(C)C(=O)CCC(=O)NC1CCC(CCN2CCC(c3cccc4c3CCO4)CC2)CC1` (stereo not drawn) reads 205 °C; that for `O=C(NC(Cc1ccccc1)C1CC(Cc2ccccc2)=NO1)OCc1ccccc1` (stereo not drawn), 87.5 to 89.5 °C.
The figure for `Nc1ccc(Br)cc1C(O)c1ccccn1` (stereo not drawn) is 104 to 105 °C.
The result for `O=c1c(-c2cccc(Cl)c2)c[nH]n1-c1cccc(C(F)(F)F)c1` reads 190 to 192 °C.
The compound `CNC(=O)c1ccnc([N+](=O)[O-])c1` gave a melting point of 131 to 133 °C.
As for `O=S(=O)(Nc1nc(O)ncc1F)c1ccccc1`, the melting point was 221 to 223 °C.
The result for `CCOCc1nc2c(N)nc3ccccc3c2n1CC(=O)CC` reads 187 to 188 °C.
The figure for `Cc1cccc2c(=O)cc(N3CCOCC3)oc12` is 148 °C; for `CCOCc1nc2nccnc2c(=O)[nH]1` it is 168 to 169 °C.
The result for `COc1cc(C)nc(NC(=O)NS(=O)(=O)c2c(C)nn(C)c2S(=O)(=O)N(C)C)n1` reads 215 to 217 °C; that for `N#Cc1cc2c(c3ccc(=O)[nH]c13)OC(CN=[N+]=[N-])C2` (stereo not drawn), 213 to 215 °C.
Compound `CCC1(c2ccccc2)C(=O)N(CCO)C(=O)N(CCO)C1=O` displayed a melting point of 107 to 109 °C.
The figure for `O=C(NCc1ccc(F)c(F)c1)c1ccnc(N2CCN(Cc3cccnc3)C2=O)c1` is 178 to 180 °C; for `CCOC(=O)c1cc(=O)c2ccc(N)cc2o1` it is 192 to 194 °C.
The result for `Cc1cccc(-c2nc(N)sc2-c2ccnc(-c3ccc(C(=O)N4CCOCC4)cc3)c2)n1` reads 158 to 160 °C.
The compound `O=C1CCCN(Cc2ccc([N+](=O)[O-])cc2Cl)c2ncccc21` had a melting point of 162 °C.
The figure for `CCC(COC)Nc1nc(C)nc(N2CCc3cc(OC)cc(Cl)c32)c1C=O` (stereo not drawn) is 150 to 153 °C.
The result for `CSC(=S)N1CCN(Cc2cc(OC(C)=O)ccc2O)CC1` reads 124 °C.
The result for `ClCc1cnc(SCc2ccccc2)s1` reads 57 to 61 °C; that for `COc1ccc(-c2cc(CN(C)C)c(=O)n(Cc3ccc(F)c(F)c3)n2)cc1F`, 130 °C; that for `CNC(=O)CCC(=NOCc1ccc(OCc2nc(-c3ccccc3)oc2C)cc1)c1ccccc1`, 141 to 142 °C.
Take `CCOC(=O)c1cc2c(C)cccc2n1CCNC(=O)OC(C)(C)C`: the melting point was 93 to 94 °C.
The figure for `CCCCCCCCSCCCN=C=O` is 84 to 85 °C.
The figure for `CCc1ccc2scc(CCNC(C)=O)c2c1` is 87 to 88 °C; for `CCCCCCC(O)Cn1ccnc1` (stereo not drawn) it is 44 to 45.5 °C; for `O=C(Nc1ccc(Cl)c(C(F)(F)F)c1)N[C@H]1CC[C@H](O)CC1` it is 203 to 207 °C.

For the origin of these results see a melting point compilation (Tetko et al.; mined from patent text by program, amines drawn as free bases though some values may be those of a salt).
